Laboratory results: patent US9057725B2, “Composition for diagnosing, treating, and preventing liver disease” (SNU R&DB Foundation, priority 2010, dated 2015)
“Also recorded” adds a separate entry of the source.

Legend:
TM4SF5 [1] = target: T1, TM4SF5 (Mus musculus, UniProt F6X2F3); assay: TGFβ mediated α-SMA expression in normal hepatocytes (AML12 cells) treated with TM4SF5 antagonist, Western blotting; assay type: cell-based
T1 construct: normal hepatocytes were treated with TGFβ to induce TM4SF5 expression and EMT, during which TSAHC was treated; endogenous in cells; host or cells: AML12 (ATCC), TGFβ-treated
T1 sequence (F6X2F3 1-196): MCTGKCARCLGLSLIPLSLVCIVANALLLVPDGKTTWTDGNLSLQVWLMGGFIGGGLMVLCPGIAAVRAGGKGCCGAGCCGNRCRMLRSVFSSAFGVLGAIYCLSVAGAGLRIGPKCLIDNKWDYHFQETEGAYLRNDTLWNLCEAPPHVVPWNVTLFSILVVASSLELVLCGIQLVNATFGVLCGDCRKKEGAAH
Description: FIG. 25 is a set of photographs illustrating the results of Western blotting performed to confirm the level of α-SMA expression induced by TGFβ in AML12 cells treated with TSAHC and […].
First, normal hepatocytes were treated with TGFβ to induce TM4SF5 expression and EMT, during which TSAHC was treated. As described hereinbefore, the normal hepatocytes were washed with serum-free DMEM, followed by serum starvation for 4 hours. Then, the cells treated with TGFβ to induce TM4SF5 expression. 6 hours later, the cells were treated with TSAHC at the concentration of 5 μM or 10 μM, followed by culture for 18 hours. The expression of α-SMA protein was investigated.
For the comparison, the cells were treated with the control compound that had similar structure to TSAHC but had substituted R residue (4′-amino-4-hydroxychalcone) at the same concentration as the above (5 μM or 10 μM).

[2] = test system: Balb/c mice treated with CCl4; assay: Hepatic injury and hepatic fibrosis induced by CCl4 in mice; assay type: in vivo, mouse; details: for hepatic injury (H&E staining): 50 mg/kG oral administration or IP, 3 times/week; for hepatic injury (H&E staining) / collagen type I expression (Masson's Trichrome staining): 2 weeks; for collagen type I expression (Masson's Trichrome staining): oral administration or IP, 50 mg/kG; for Ser10 phosphorylation induction (p27) / TM4SF5 signal transduction process (phosphorylation of Smad3, phosphorylation and activation of EFGR/Erk) / p27 expression / α-SMA expression induction: liver tissue extract, Western blotting
Description: Balb/c mice (5 weeks old, n=5) were used. The mice were fed with sterilized water and feeds. For the biological day/night cycle, the indoor light was turned on for 12 hours and off for 12 hours. The mice were treated with CCl4 or ethanol for 2 weeks. The CCl4 group mice were treated with 40% CCl4 diluted in olive oil by intraperitoneal administration ([…], 3 times/week). The CCl4-ContComp group mice were treated with 4′-Amino-4-hydroxychalcone, the control compound (ContComp), every other day and every next day of CCl4 treatment by IP (intraperitoneal injection) or oral administration (50 mg/kG, 40% DMSO, 3 times/week). The CCl4-TSAHC group mice were treated with TSAHC every other day and every next day of CCl4 treatment by IP (intraperitoneal injection) or oral administration (50 mg/kG, 40% DMSO, 3 times/week).
Two weeks later, the mice were sacrificed by using ether. The liver was extracted from the sacrificed animal of each group. Paraffin samples were prepared by the same manner as described in Example 5. The paraffin sections in the thickness of 4-5 μm were fixed on slide, followed by H&E (hematoxylin and eosin) staining for the confirmation of hepatic injury, Masson's Trichrome […] staining for collagen type I staining, and immunihistochemistry with the antibody (1:1500) against α-SMA (smooth muscle actin, Sigma).
Additionally, two mice were randomly selected from each group, from which liver tissue extract was prepared. The protein in the extract was quantified, followed by Western blotting with antibodies against phospho-Y^1173EGFR (Santa Cruz Biotechnology, Santa Cruz, Calif.), phospho-Y^1068EGFR (Santa Cruz Biotechnology, Santa Cruz, Calif.), EGFR (Santa Cruz Biotechnology, Santa Cruz, Calif.), phospho-Erk (Cell Signaling Technology, Danvers, Mass.), Erk (Cell Signaling Technology, Danvers, Mass., USA), phospho-Smad3 (Cell Signaling Technology, Danvers, Mass.), TM4SF5 (antibody of Example 1), α-SMA (smooth muscle actin, Sigma), phospho-S^10-p27 (Santa Cruz Biotechnology, Santa Cruz, Calif., USA), p27 (BD Transduct. Lab. San Jose Calif., USA), and α-tubulin (Sigma-Aldrich).

AML12 cells = assay: TM4SF5 expression in AML12 cells treated with EGF, HGF and PDGF before TGFβ; assay type: cell-based, mouse; details: growth factor 30 minutes before TGFβ (2.5 ng/ml), 24 hours, serum-free
Description: AML12 cells were cultured in DMEM supplemented with 10% FBS, which were then washed with serum-free DMEM. The cells were maintained as serum-free status for 4 hours. After serum starvation, the cells were treated with EGF, HGF, and PDGF (PeproTech, Inc., Rocky Hill, N.J., USA) 30 minutes before the treatment of TGFβ (2.5 ng/ml) in order to activate EGFR signaling. The cells were further cultured for 24 hours after the treatment of TGFβ. AML12 cell line was the normal hepatocyte cell line which was sensitive to serum. To make near death condition, the medium was regulated as serum-free and the experiment was carried out under the serum-free condition and ITS (Insulin, transferrin, selenium, Sigma-Aldrich) treated condition, which was the same serum-free condition as mentioned above.
Western blotting was performed to confirm TM4SF5 expression. As a result, when the cells were treated with EGF, HGF, and PDGF, EGFR signaling was activated and thereby TM4SF5 expression was increased (FIG. 11).

Chang cells = assay: TM4SF5 expression and EGFR signal transduction system over treatment times of TGFβ and EGF in Chang cells; assay type: cell-based, human
Description: Chang cells were cultured in DMEM supplemented with 10% FBS, which were then washed with serum-free DMEM. The cells were maintained as serum-free status for 4 hours. […] Then, TM4SF5 expression and EGFR signal transduction system were investigated.

TM4SF5 [3] = target: T1, TM4SF5; assay: TGFβ1 mediated vimentin expression in AML12 cells, Western blotting; assay type: cell-based; details: 5 μM or 10 μM
Description: FIG. 27 is a set of photographs illustrating the results of Western blotting performed to confirm the level of vimentin expression mediated by TGFβ in AML12 cells treated with TSAHC, 4′-(p-aminobenzenesulfoneamide)-4-hydroxychalcone, and 4,4-dihydroxychalcone.
(§1) In addition, 4′-(p-aminobenzenesulfonamide)-4-hydroxychalcone (ASAHC), the water-soluble […], was treated to AML12 and Chang cells at the concentration of 5 μM or 10 μM.

TM4SF5 [4] = target: T2, TM4SF5 (Homo sapiens, UniProt O14894); assay: TGFβ1 mediated vimentin expression in Chang cells, Western blotting; assay type: cell-based; details: 5 μM or 10 μM
T2 construct: endogenous in cells; host or cells: Chang cells (ATCC), TGFβ-treated
T2 sequence (O14894 1-197): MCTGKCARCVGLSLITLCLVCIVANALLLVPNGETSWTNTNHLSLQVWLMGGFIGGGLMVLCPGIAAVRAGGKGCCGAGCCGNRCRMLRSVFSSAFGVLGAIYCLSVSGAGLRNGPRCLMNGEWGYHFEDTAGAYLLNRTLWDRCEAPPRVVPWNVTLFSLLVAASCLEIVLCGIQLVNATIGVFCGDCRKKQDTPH
Description: FIG. 26 is a set of photographs illustrating the results of Western blotting performed to confirm the level of vimentin expression mediated by TGFβ in Chang cells treated with TSAHC, 4′-(p-aminobenzenesulfoneamide)-4-hydroxychalcone, and 4,4-dihydroxychalcone.
as §1

[5] = AML12 cells, compound 5 μM or 10 μM 6 hours after TGFβ, culture for 18 hours, Western blotting
[6] = liver tissue of CCl4 treated mice

Compound: Nc1ccc(C(=O)/C=C/c2ccc(O)cc2)cc1 [4′-amino-4-hydroxychalcone, reference compound]
- TGFβ mediated α-SMA expression (TM4SF5 [1]; [5]): did not affect
- TM4SF5 expression (TM4SF5 [1]; [5]): did not affect
- hepatic injury (H&E staining) ([2]; CCl4 together with compound): CCl4 dependency was not observed
- collagen type I expression (Masson's Trichrome staining) ([2]; CCl4 together with compound): not detected
- Ser10 phosphorylation induction (p27) [2]: not inhibited
- TM4SF5 signal transduction process (phosphorylation of Smad3, phosphorylation and activation of EFGR/Erk) [2]: not affected
- p27 expression [2]: not inhibited
- α-SMA expression induction [2]: not inhibited
- EMT [2, 6]: not inhibited

Compound: EGF: growth factor (PeproTech) used to activate EGFR signaling
- TM4SF5 expression (AML12 cells): increased
- EGFR signal transduction system activation and TM4SF5 expression, EGF only (Chang cells; EGF only for 4 hours at different concentrations): not particularly induced
- EGFR signal transduction system activation and TM4SF5 expression over time (Chang cells; TGFβ (2.5 ng/ml) and EGF (50 ng/ml), 0, 0.5, 1, 2, and 24 hours): induced temporally

Compound: Nc1ccc(S(=O)(=O)Nc2ccc(C(=O)/C=C/c3ccc(O)cc3)cc2)cc1 [ASAHC, 4′-(p-aminobenzenesulfonylamino)-4-hydroxychalcone]
- TGFβ1 mediated vimentin expression (TM4SF5 [3]): down-regulated
- TGFβ1 mediated vimentin expression (TM4SF5 [4]): down-regulated

Compound: PDGF
- TM4SF5 expression (AML12 cells): increased

Compound: Cc1ccc(S(=O)(=O)Nc2ccc(C(=O)/C=C/c3ccc(O)cc3)cc2)cc1 [TSAHC, 4′-(p-toluenesulfonylamino)-4-hydroxychalcone]
- TGFβ mediated α-SMA expression (TM4SF5 [1]; [5]): significantly reduced; also recorded: inhibit
- EFGR/Erk phosphorylation (TM4SF5 [1]; normal hepatocytes treated with TGFβ and compound): reduced
- TGFβ1 mediated vimentin expression (TM4SF5 [3]): down-regulated
- TGFβ1 mediated vimentin expression (TM4SF5 [4]): down-regulated
- hepatic injury (H&E staining) ([2]; CCl4 together with compound): reduced
- α-SMA expression (immunohistochemical staining) ([2]; CCl4 together with compound, liver tissue): reduced
- collagen type I expression (Masson's Trichrome staining) ([2]; CCl4 together with compound): decrease; also recorded: reduced
- liver H&E staining, compound only ([2]; group treated with compound only, without CCl4): normal liver
- Ser10 phosphorylation induction (p27) [2]: inhibited
- TM4SF5 signal transduction process (phosphorylation of Smad3, phosphorylation and activation of EFGR/Erk) [2]: not affected
- p27 expression [2]: inhibited
- α-SMA expression induction [2]: inhibited
- EMT [2, 6]: decrease; also recorded: inhibited
- TM4SF5 activity [2, 6]: suppressed

Compound: O=C(/C=C/c1ccc(O)cc1)c1ccc(O)cc1 [4′4-dihydroxychalcone, reference compound]
- TGFβ1 mediated vimentin expression (TM4SF5 [3]): not much changed
- TGFβ1 mediated vimentin expression (TM4SF5 [4]): not much changed

Compound: HGF: growth factor (PeproTech) used to activate EGFR signaling
- TM4SF5 expression (AML12 cells): increased
